Values of other authors, collected in patent US10633811B1, “Apparatus and method for collecting and disposing of pet waste” (COSMIC PET LLC, priority 2017, dated 2020).

Key:
[1] = test system: S. typhimurium ATCC 14028; conditions: Table 3, single compounds; Nutrient Broth No. 2, 37° C., Tween 80 0.002% vol/vol
C. jejuni 3393 = conditions: Table 3, single compounds; Nutrient Broth No. 2, 37° C., Tween 80 0.002% vol/vol
E. faecalis ATCC 29212 = conditions: Table 3, single compounds; Nutrient Broth No. 2, 37° C., Tween 80 0.002% vol/vol
C. coli ATCC 43484 = conditions: Table 3, single compounds; Nutrient Broth No. 2, 37° C., Tween 80 0.002% vol/vol
C. jejuni C338 = conditions: Table 3, single compounds; Nutrient Broth No. 2, 37° C., Tween 80 0.002% vol/vol
Campylobacter spp. = conditions: against Campylobacter spp., E. coli, S. typhimurium, and E. faecalis
E. coli O26 = conditions: Table 3, single compounds; Nutrient Broth No. 2, 37° C., Tween 80 0.002% vol/vol
[2] = test system: Pseudomonas aeruginosa PAO1; conditions: CAMHB, 0.1% Tween 80
Campylobacter jejuni = conditions: strain not given

Compound | S. typhimurium ATCC 14028 (MIC %) [1] | C. jejuni 3393 (MIC %) (C. jejuni 3393) | E. faecalis ATCC 29212 (MIC %) (E. faecalis ATCC 29212) | C. coli ATCC 43484 (MIC %) (C. coli ATCC 43484) | C. jejuni C338 (MIC %) (C. jejuni C338) | antimicrobial activity among single compounds (Campylobacter spp.) | E. coli O26 (MIC %) (E. coli O26) | MIC [2] | C.jejuni 81116 MIC (C.jejuni 81116) | C.jejuni 108 MIC (C.jejuni 108) | concentration that inhibits Campylobacter jejuni (Campylobacter jejuni)
CC1=CCC(O)(C(C)C)CC1 (stereo not shown) [Terpinen-4-ol] | 0.06% | 0.06% | 0.5% | 0.06% | 0.06% | highest activity | 0.06% |  |  |  | 
CC1=CC=C(C(C)C)CC1 [α-Terpinene] | >2% | 0.125% | >2% | 0.125% | 0.25% |  | >2% |  |  |  | 
α-Bisabolol | >2% | 0.125% | >2% | 0.5% | 0.5% |  | 2% |  |  |  | 
C=CC(C)(O)CCC=C(C)C (stereo not shown) [Linalool] |  |  |  |  |  |  |  | >5% |  |  | 
O=CC=Cc1ccccc1 [Cinnamaldehyde] |  |  |  |  |  |  |  | 0.1% |  |  | 
C=CCc1ccc(O)c(OC)c1 [Eugenol] |  |  |  |  |  |  |  | >5% |  |  | 
C=CC(C)(O)CCC=C(C)CCC=C(C)C (stereo not shown) [Nerolidol] | >2% | 0.5% | >2% | 1% | 0.5% |  | >2% |  |  |  | 
CC12CCC(CC1)C(C)(C)O2 [Cineole] | 2% | 0.25% | >2% | 0.25% | 0.25% |  | 1% |  |  |  | 
Cc1ccc(C(C)C)cc1O [Carvacrol] |  |  |  |  |  |  |  |  | 300 to 400 µM | 300 to 400 µM | 0.3 to 0.4 mM
